These results are taken from patent EP1229026A1, “ALKOXYIMINOALKANOIC ACID DERIVATIVES” (Takeda Chemical Industries, Ltd., priority 1999, dated 2001).

Assay [1] relates to KKA^y mice. The experiment in a line: Hypoglycemic and hypolipidemic (hypotriglyceridemic) actions in mice. It counts as in vivo. The following applies: four days; for Hypoglycemic action (%): percent decrease of plasma glucose vs non-administration group (100%); for Hypolipidemic action (%): percent decrease of plasma triglyceride vs non-administration group (100%). Here is the method: Test compounds were mixed in a powdery diet (CE-2, Japan Clea) at the concentration of 0.01% (compound of Example 2) or 0.005% (compound of Example 4), and freely given to KKA^y mice (11 to 12 weeks old, 5 mice per group), a model of obesity and type II diabetes, for four days. During this period, water was given freely. Blood was sampled from orbital venous plexus, and glucose and triglyceride levels in plasma separated from blood were determined enzymatically using L type Wako Glu2 (Wako Pure Chemical Industries, Ltd.) or L type Wako TG•H (Wako Pure Chemical Industries, Ltd.), respectively.

Another assay addresses T1, PPARγ-RXRα heterodimer (Homo sapiens, UniProt P37231).
T1 construct: 1.4 kb DNA fragment containing PPARγ gene was recovered from the gel; expressed in transfected cells; host or cells: CHO-K1
T1 sequence (P37231 1-477 isoform P37231-2): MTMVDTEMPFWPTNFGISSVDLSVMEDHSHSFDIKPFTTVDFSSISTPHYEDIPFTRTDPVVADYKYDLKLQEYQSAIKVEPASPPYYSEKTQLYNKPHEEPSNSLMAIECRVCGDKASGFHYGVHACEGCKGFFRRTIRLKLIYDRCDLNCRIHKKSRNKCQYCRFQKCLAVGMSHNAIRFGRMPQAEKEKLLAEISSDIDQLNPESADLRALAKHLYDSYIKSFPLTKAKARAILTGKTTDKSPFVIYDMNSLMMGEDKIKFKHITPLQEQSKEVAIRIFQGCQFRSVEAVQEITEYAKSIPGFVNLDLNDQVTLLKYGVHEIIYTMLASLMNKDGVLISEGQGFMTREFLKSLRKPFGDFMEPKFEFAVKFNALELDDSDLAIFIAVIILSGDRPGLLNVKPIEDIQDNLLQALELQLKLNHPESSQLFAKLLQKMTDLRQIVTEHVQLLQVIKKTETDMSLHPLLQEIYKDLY
T1 sequence (P19793 1-462 partner): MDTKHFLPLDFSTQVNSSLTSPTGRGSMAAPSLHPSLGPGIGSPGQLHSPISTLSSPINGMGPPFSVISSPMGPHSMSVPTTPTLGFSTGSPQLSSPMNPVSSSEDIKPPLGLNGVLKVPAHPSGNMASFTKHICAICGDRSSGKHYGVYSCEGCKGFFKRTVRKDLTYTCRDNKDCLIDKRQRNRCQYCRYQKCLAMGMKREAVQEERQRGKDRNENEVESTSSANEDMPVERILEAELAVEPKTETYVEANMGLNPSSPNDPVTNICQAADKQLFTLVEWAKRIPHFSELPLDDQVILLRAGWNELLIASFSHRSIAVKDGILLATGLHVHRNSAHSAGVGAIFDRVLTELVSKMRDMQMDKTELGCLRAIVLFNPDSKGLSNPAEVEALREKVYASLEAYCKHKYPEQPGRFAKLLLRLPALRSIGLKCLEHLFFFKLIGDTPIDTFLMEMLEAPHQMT
The experiment in a line: PPARγ-RXRα heterodimer ligand activity (luciferase reporter in PPARγ:RXRα:4ERPP/CHO-K1 cells). As to conditions: concentration for 50% of the maximum fold induction of luciferase activity, 48 hours. It is filed as cell-based. Here is the method: A PPARγ:RXRα:4ERPP/CHO-K1 cells obtained in Reference Example 5 to be described later were cultured in HAM F12 medium (produced by NISSUI PHARMACEUTICAL CO., LTD.) containing 10% fetal bovine serum (produced by Life Technologies, Inc., USA) and then inoculated to a 96-well white plate (produced by Corning Costar Corporation, USA) at the density of 2×10^4 cells/well, and cultured in a CO2 gas incubator at 37°C overnight.
After washing the 96 well white plate with PBS (phosphate-buffered saline), 90 µl of HAM F12 medium containing 0.1% fatty acid-free bovine serum albumin (BSA) and 10 µl of test compound were added, which was followed by culture in a CO2 gas incubator at 37°C for 48 hours. After removing the medium, 40 µl of PIKKAGENE 7.5 (produced by Wako Pure Chemical Industries, Ltd.) was added. After stirring, the luciferase activity was determined using Lumistar (produced by BMG Labtechnologies GmbH, Germany).
A fold induction was calculated based on the luciferase activity of each test compound where the luciferase activity in the test compound non-administration group was taken as 1. The values of the test compound concentration and the fold induction were analyzed using PRISM 2.01 (produced by GraphPad Software Inc., USA) to calculate the EC50 values, the effective concentration of the test compound for 50% of the maximum fold induction. […]
Background: In a reporter assay the amount or activity of a reporter protein is the signal.

The subject of assay [2] is KKA^y mice. In words: Total cholesterol lowering action and plasma anti-arteriosclerosis index-increasing action in mice. It is filed as in vivo. As to conditions: 0.005% in powdery diet, four days. Here is the method: Test compound was mixed in a powdery diet (CE-2, Japan Clea) at the concentration of 0.005%, and freely given to KKA^y mice (12 weeks old, 5 mice per group), a model of obesity and type II diabetes, for four days. During this period, water was given freely. Blood was sampled from orbital venous plexus and plasma was separated and analyzed for components. Total cholesterol levels were determined using L type Wako Cholesterol (Wako Pure Chemical Industries, Ltd.). Precipitation reagent for apoB containing lipoprotein (Wako Pure Chemical Industries, Ltd.) was added to a part of the plasma to allow precipitation of non-HDL lipoprotein, and cholesterol (HDL cholesterol) in the resulting supernatant was determined. The plasma anti-arteriosclerosis index [(HDL cholesterol/total cholesterol)×100] was calculated using these cholesterol levels.
In the Table, "Total cholesterol lowering action (%)" represents the percent reduction (%) of total cholesterol level in the test compound administration group, when the total cholesterol level in the test compound non-administration group is taken as 100%. "Plasma anti-arteriosclerosis index-increasing action (%)" represents a percent increase (%) of plasma anti-arteriosclerosis index in the test compound administration group, when the plasma anti-arteriosclerosis index in the test compound non-administration group-is taken as 100%.

The EC50 is the concentration that produces a half-maximal response. High values mean a less potent agent, low ones a more potent agent. Turning to `Cc1oc(-c2ccccc2)nc1COc1ccc2cc(CO/N=C(\CCC(=O)O)c3ccccc3)ccc2c1` [Example 2, (E)-4-[6-(5-methyl-2-phenyl-4-oxazolylmethoxy)-2-naphthylmethoxyimino]-4-phenylbutyric acid], in the assay on KKA^y mice [1] (0.01% in powdery diet), the “Hypoglycemic action (%)” value was 30% and the “Hypolipidemic action (%)” value worked out at 22%. On PPARγ-RXRα heterodimer, the EC50 was 1600 nM.
As for `Cc1oc(-c2ccccc2)nc1COc1ccc(CO/N=C(\CCC(=O)O)c2ccccc2)cn1` [Example 4, (E)-4-[6-(5-methyl-2-phenyl-4-oxazolylmethoxy)-3-pyridylmethoxyimino]-4-phenylbutyric acid], in the assay on KKA^y mice [1] (0.005% in powdery diet), the “Hypoglycemic action (%)” value amounted to 54% and the “Hypolipidemic action (%)” value turned out to be 90%. The “Plasma anti-arteriosclerosis index-increasing action (%)” value in the assay on KKA^y mice [2] (percent increase of index [(HDL cholesterol/total cholesterol)×100] vs non-administration group (100%)) turned out to be 39%. The “Total cholesterol lowering action (%)” value in the assay with KKA^y mice [2] (percent reduction of total cholesterol level vs non-administration group (100%)) was found to be 22%. The same molecule had an EC50 at PPARγ-RXRα heterodimer of 1.4 nM.
